Measurements reported in ChEMBL document CHEMBL1155926, “Parallel synthesis and antileishmanial activity of ether-linked phospholipids” (Bioorg Med Chem Lett, 2008).

Experiments:
Leishmania donovani [1] = assay: Antileishmanial activity against Leishmania donovani axenic amastigotes after 72 hrs by serial dilution method; assay type: functional, organism-based
Leishmania donovani [2] = assay: Antileishmanial activity against Leishmania donovani infected macrophage; assay type: functional, organism-based

SMILES	IC50 (Leishmania donovani [1]) [µM]	IC50 (Leishmania donovani [2]) [µM]
Cc1noc(C)c1COCC(COP(=O)([O-])OCC[N+](C)(C)C)Oc1ccccc1 (stereo unspecified)	> 50	
Cc1noc(C)c1COCC(COP(=O)([O-])OCC[N+](C)(C)C)OCc1cccc2ccccc12 (stereo unspecified)	> 50	
C[N+](C)(C)CCOP(=O)([O-])OCC(COCn1nnc2ccccc21)OCc1ccccc1 (stereo unspecified)	> 50	
Cc1noc(C)c1COCC(COP(=O)([O-])OCC[N+](C)(C)C)OCc1ccccc1 (stereo unspecified)	> 50	
C=CCOCC(COP(=O)([O-])OCC[N+](C)(C)C)OCCCC (stereo unspecified)	42.5	
CCCCOC(COCc1c(C)noc1C)COP(=O)([O-])OCC[N+](C)(C)C (stereo unspecified)	> 50	
C[N+](C)(C)CCOP(=O)([O-])OCC(COCc1ccccc1)Oc1ccccc1 (stereo unspecified)	> 50	
CCCCOC(COCc1ccccc1)COP(=O)([O-])OCC[N+](C)(C)C (stereo unspecified)	> 50	
CCCCOC(COCn1nnc2ccccc21)COP(=O)([O-])OCC[N+](C)(C)C (stereo unspecified)	> 50	

Stronger by IC50 (Leishmania donovani [1]), values ahead:

IC50 (Leishmania donovani [1]) [µM]	IC50 (Leishmania donovani [2]) [µM]	SMILES
1.6		CCCCCCCCCCCCCCCCCCOC(COCc1ccccc1)COP(=O)([O-])OCC[N+](C)(C)C (stereo unspecified)
4.15		C[N+](C)(C)CCOP(=O)([O-])OCC(COCc1ccccc1)OCc1ccccc1 (stereo unspecified)
6.75		C=CCOCC(COP(=O)([O-])OCC[N+](C)(C)C)OCCCCCCCCCCCCCCCCCC (stereo unspecified)
26.7		C=CCOCC(COP(=O)([O-])OCC[N+](C)(C)C)OCc1cccc2ccccc12 (stereo unspecified)
0.22	1.74	CCCCCCCCCCCCCCCCOP(=O)([O-])OCC[N+](C)(C)C [MILTEFOSINE]
1.3		CCCCCCCCCCCCCCCCCCOC(COCc1c(C)noc1C)COP(=O)([O-])OCC[N+](C)(C)C (stereo unspecified)
33.1		C[N+](C)(C)CCOP(=O)([O-])OCC(COCn1nnc2ccccc21)OCc1cccc2ccccc12 (stereo unspecified)
0.66	0.78	CCCCCCCCCCCCCCCCCCOC(COCn1nnc2ccccc21)COP(=O)([O-])OCC[N+](C)(C)C (stereo unspecified)
28.2		C[N+](C)(C)CCOP(=O)([O-])OCC(COCn1nnc2ccccc21)Oc1ccccc1 (stereo unspecified)
13.8		C[N+](C)(C)CCOP(=O)([O-])OCC(COCc1ccccc1)OCc1cccc2ccccc12 (stereo unspecified)
